# Test results reported in PubChem BioAssay AID248 (DTP/NCI, 2004).
# Inconclusive results and toxic doses are left out.
# Test system: L1210 leukemia ip in BDF1 mice, survival T/C
# Assay: NCI In Vivo Anticancer Drug Screen. Data for tumor model L1210 Leukemia (intraperitoneal) in B6D2F1 (BDF1) mice
# Settings: higher = longer survival
# Summary of the method: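 Survival endpoint. Drug-treated group vs vehicle group, expressed as T divided by C. Tumor passaged by transplantation.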
# [1] = endpoint: mean survival time, dose: 12.5 mg/kg/injection, schedule: Q01DX009 (ip), vehicle: saline
# [2] = endpoint: mean survival time, dose: 25.0 mg/kg/injection, schedule: Q01DX009 (ip), vehicle: saline
# [3] = endpoint: mean survival time, dose: 100.0 mg/kg/injection, schedule: Q04DX003 (ip), vehicle: saline
# [4] = endpoint: mean survival time, dose: 200.0 mg/kg/injection, schedule: Q04DX003 (ip), vehicle: saline
# [5] = endpoint: mean survival time, dose: 400.0 mg/kg/injection, schedule: Q04DX003 (ip), vehicle: saline
# [6] = endpoint: mean survival time, dose: 100.0 mg/kg/injection, schedule: Q01DX009 (ip), vehicle: saline with Tween-80
# [7] = endpoint: mean survival time, dose: 200.0 mg/kg/injection, schedule: Q01DX009 (ip), vehicle: saline with Tween-80
# [8] = endpoint: mean survival time, dose: 100.0 mg/kg/injection, schedule: Q01DX009 (ip), vehicle: acetone
# [9] = endpoint: mean survival time, dose: 200.0 mg/kg/injection, schedule: Q01DX009 (ip), vehicle: acetone
# [10] = endpoint: mean survival time, dose: 400.0 mg/kg/injection, schedule: Q01DX009 (ip), vehicle: acetone
# [11] = endpoint: mean survival time, dose: 100.0 mg/kg/injection, schedule: Q01DX001 (ip), vehicle: saline
# [12] = endpoint: mean survival time, dose: 200.0 mg/kg/injection, schedule: Q01DX001 (ip), vehicle: saline
# [13] = endpoint: mean survival time, dose: 400.0 mg/kg/injection, schedule: Q01DX001 (ip), vehicle: saline
# [14] = endpoint: mean survival time, dose: 100.0 mg/kg/injection, schedule: Q01DX009 (ip), vehicle: Klucel (hydroxypropylcellulose) (HPC)
# [15] = endpoint: mean survival time, dose: 200.0 mg/kg/injection, schedule: Q01DX009 (ip), vehicle: Klucel (hydroxypropylcellulose) (HPC)
# [16] = endpoint: mean survival time, dose: 400.0 mg/kg/injection, schedule: Q01DX009 (ip), vehicle: Klucel (hydroxypropylcellulose) (HPC)
# [17] = endpoint: mean survival time, dose: 100.0 mg/kg/injection, schedule: Q01DX001 (ip), vehicle: carboxymethylcellulose (CMC)
# [18] = endpoint: mean survival time, dose: 200.0 mg/kg/injection, schedule: Q01DX001 (ip), vehicle: carboxymethylcellulose (CMC)
# [19] = endpoint: mean survival time, dose: 400.0 mg/kg/injection, schedule: Q01DX001 (ip), vehicle: carboxymethylcellulose (CMC)
compound,measurement,setting,value
CCCCCC(CN(C)C)C(O)/C=C\c1ccccc1 (configuration not stated),T/C,"endpoint: mean survival time, dose: 12.5 mg/kg/injection, schedule: Q01DX009 (sc), vehicle: steriod suspending solution",97 % of control
same,T/C,"endpoint: mean survival time, dose: 12.5 mg/kg/injection, schedule: Q04DX003 (ip), vehicle: other",119 % of control
same,T/C,"endpoint: mean survival time, dose: 25.0 mg/kg/injection, schedule: Q01DX009 (sc), vehicle: steriod suspending solution",98 % of control
same,T/C,"endpoint: mean survival time, dose: 25.0 mg/kg/injection, schedule: Q04DX003 (ip), vehicle: other",106 % of control
same,T/C,"endpoint: mean survival time, dose: 50.0 mg/kg/injection, schedule: Q01DX009 (sc), vehicle: steriod suspending solution",97 % of control
same,T/C,"endpoint: mean survival time, dose: 50.0 mg/kg/injection, schedule: Q04DX003 (ip), vehicle: other",103 % of control
CCOC(=O)c1[nH]c(C)nc1/N=N/N(C)C,T/C,"endpoint: median survival time, dose: 25.0 mg/kg/injection, schedule: Q01DX009 (ip), vehicle: Klucel (hydroxypropylcellulose) (HPC)",116 % of control
OCC1CC[N-]CC1.OCC1CC[N-]CC1.[Cl][Pt+2]([Cl])([Cl])[Cl],T/C,[1],105 % of control
same,T/C,[2],94 % of control
same,T/C,"endpoint: mean survival time, dose: 25.0 mg/kg/injection, schedule: Q04DX003 (ip), vehicle: saline",94 % of control
same,T/C,"endpoint: mean survival time, dose: 50.0 mg/kg/injection, schedule: Q01DX009 (ip), vehicle: saline",103 % of control
same,T/C,"endpoint: mean survival time, dose: 50.0 mg/kg/injection, schedule: Q04DX003 (ip), vehicle: saline",107 % of control
same,T/C,[3],104 % of control
OC(c1ccccc1)c1ccccc1,T/C,[3],95 % of control
same,T/C,[4],100 % of control
same,T/C,[5],97 % of control
COc1ccc(CN(N=O)c2ccc(C(=O)O)cc2)cc1,T/C,[6],91 % of control
same,T/C,"endpoint: mean survival time, dose: 100.0 mg/kg/injection, schedule: Q04DX003 (ip), vehicle: saline with Tween-80",110 % of control
same,T/C,[7],90 % of control
same,T/C,"endpoint: mean survival time, dose: 200.0 mg/kg/injection, schedule: Q04DX003 (ip), vehicle: saline with Tween-80",104 % of control
same,T/C,"endpoint: mean survival time, dose: 400.0 mg/kg/injection, schedule: Q04DX003 (ip), vehicle: saline with Tween-80",105 % of control
CCC1CN2C(=N1)c1ccccc1-c1cc(Cl)ccc12 (configuration not stated),T/C,"endpoint: mean survival time, dose: 6.25 mg/kg/injection, schedule: Q01DX009 (ip), vehicle: suspension in saline",102 % of control
same,T/C,"endpoint: mean survival time, dose: 10.0 mg/kg/injection, schedule: Q01DX001 (ip), vehicle: Klucel (hydroxypropylcellulose) (HPC)",103 % of control
same,T/C,"endpoint: mean survival time, dose: 10.0 mg/kg/injection, schedule: Q01DX009 (ip), vehicle: Klucel (hydroxypropylcellulose) (HPC)",90 % of control
same,T/C,"endpoint: mean survival time, dose: 12.5 mg/kg/injection, schedule: Q01DX009 (ip), vehicle: suspension in saline",102 % of control
same,T/C,"endpoint: mean survival time, dose: 20.0 mg/kg/injection, schedule: Q01DX001 (ip), vehicle: Klucel (hydroxypropylcellulose) (HPC)",114 % of control
same,T/C,"endpoint: mean survival time, dose: 20.0 mg/kg/injection, schedule: Q01DX009 (ip), vehicle: Klucel (hydroxypropylcellulose) (HPC)",90 % of control
same,T/C,"endpoint: mean survival time, dose: 20.0 mg/kg/injection, schedule: Q01DX009 (ip), vehicle: saline",111 % of control
same,T/C,"endpoint: mean survival time, dose: 20.0 mg/kg/injection, schedule: Q04DX002 (ip), vehicle: saline",114 % of control
same,T/C,"endpoint: mean survival time, dose: 20.0 mg/kg/injection, schedule: Q04DX003 (ip), vehicle: Klucel (hydroxypropylcellulose) (HPC)",88 % of control
same,T/C,"endpoint: mean survival time, dose: 25.0 mg/kg/injection, schedule: Q01DX009 (ip), vehicle: suspension in saline",110 % of control
same,T/C,"endpoint: mean survival time, dose: 40.0 mg/kg/injection, schedule: Q01DX001 (ip), vehicle: Klucel (hydroxypropylcellulose) (HPC)",108 % of control
same,T/C,"endpoint: mean survival time, dose: 40.0 mg/kg/injection, schedule: Q04DX002 (ip), vehicle: saline",118 % of control
same,T/C,"endpoint: mean survival time, dose: 40.0 mg/kg/injection, schedule: Q04DX003 (ip), vehicle: Klucel (hydroxypropylcellulose) (HPC)",88 % of control
same,T/C,"endpoint: mean survival time, dose: 80.0 mg/kg/injection, schedule: Q01DX009 (ip), vehicle: saline",188 % of control
same,T/C,"endpoint: mean survival time, dose: 80.0 mg/kg/injection, schedule: Q04DX002 (ip), vehicle: saline",122 % of control
COc1cc([N+](=O)[O-])c(C=O)cc1O,T/C,[8],97 % of control
same,T/C,[9],100 % of control
same,T/C,[10],100 % of control
CCC[N+]12CC=C(CO)C1C(O)CC2 (configuration not stated),T/C,[11],103 % of control
same,T/C,[12],100 % of control
same,T/C,[13],110 % of control
COC(=O)C1OC1c1ccc2ccccc2c1 (configuration not stated),T/C,[14],93 % of control
same,T/C,[15],95 % of control
same,T/C,[16],97 % of control
Cc1ccc(S(=O)(=O)N2Cc3ccc([N+](=O)[O-])cc3C2)cc1,T/C,[17],100 % of control
same,T/C,[18],102 % of control
same,T/C,[19],105 % of control
CC1CCCN(c2ccc([N+](=O)[O-])cc2[N+](=O)[O-])C1 (configuration not stated),T/C,[14],105 % of control
same,T/C,"endpoint: mean survival time, dose: 100.0 mg/kg/injection, schedule: Q04DX003 (ip), vehicle: Klucel (hydroxypropylcellulose) (HPC)",99 % of control
same,T/C,[15],96 % of control
same,T/C,"endpoint: mean survival time, dose: 200.0 mg/kg/injection, schedule: Q04DX003 (ip), vehicle: Klucel (hydroxypropylcellulose) (HPC)",92 % of control
same,T/C,[16],99 % of control
same,T/C,"endpoint: mean survival time, dose: 400.0 mg/kg/injection, schedule: Q04DX003 (ip), vehicle: Klucel (hydroxypropylcellulose) (HPC)",97 % of control
O=C1C(n2ccc(=O)[nH]c2=O)CCN1CCOCc1ccccc1 (configuration not stated),T/C,[14],105 % of control
same,T/C,[15],105 % of control
same,T/C,[16],100 % of control
O=C1CCC(c2ccccc2)(C2CCN(Cc3ccc(F)cc3)CC2)C(=O)N1 (configuration not stated),T/C,"endpoint: mean survival time, dose: 6.25 mg/kg/injection, schedule: Q01DX009 (ip), vehicle: saline",97 % of control
same,T/C,[1],102 % of control
same,T/C,[2],102 % of control
C/C(=N\NC(N)=O)C1=C(O)C(C(C)C)NC1=O (configuration not stated),T/C,"endpoint: mean survival time, dose: 50.0 mg/kg/injection, schedule: Q01DX001 (ip), vehicle: carboxymethylcellulose (CMC)",101 % of control
same,T/C,[17],106 % of control
same,T/C,[18],103 % of control
same,T/C,[19],109 % of control
N#CCC(=O)N1CCc2ccccc2C1,T/C,[6],97 % of control
same,T/C,"endpoint: mean survival time, dose: 100.0 mg/kg/injection, schedule: Q04DX002 (ip), vehicle: saline with Tween-80",94 % of control
same,T/C,[7],97 % of control
same,T/C,"endpoint: mean survival time, dose: 200.0 mg/kg/injection, schedule: Q04DX002 (ip), vehicle: saline with Tween-80",105 % of control
same,T/C,"endpoint: mean survival time, dose: 400.0 mg/kg/injection, schedule: Q04DX002 (ip), vehicle: saline with Tween-80",101 % of control
COc1cccc2c1C(=O)c1c(O)c3c(c(O)c1C2=O)CC(O)(C(C)=O)CC3OC1CC(N)C(OC2CC(N)C(O)C(C)O2)C(C)O1 (configuration not stated),T/C,"endpoint: mean survival time, dose: 0.65 mg/kg/injection, schedule: Q01DX009 (ip), vehicle: saline",111 % of control
same,T/C,"endpoint: mean survival time, dose: 1.25 mg/kg/injection, schedule: Q01DX009 (ip), vehicle: saline",117 % of control
same,T/C,"endpoint: mean survival time, dose: 10.0 mg/kg/injection, schedule: Q01DX009 (ip), vehicle: saline",89 % of control
CC[n+]1ccc(Nc2ccc(NC(=O)c3ccc([N+](=O)[O-])cc3)cc2)cc1,T/C,"endpoint: mean survival time, dose: 12.5 mg/kg/injection, schedule: Q01DX009 (ip), vehicle: saline with Tween-80",100 % of control
same,T/C,"endpoint: mean survival time, dose: 25.0 mg/kg/injection, schedule: Q01DX009 (ip), vehicle: saline with Tween-80",91 % of control
same,T/C,"endpoint: mean survival time, dose: 50.0 mg/kg/injection, schedule: Q01DX009 (ip), vehicle: saline with Tween-80",88 % of control
same,T/C,"endpoint: mean survival time, dose: 100.0 mg/kg/injection, schedule: Q01DX001 (ip), vehicle: saline with Tween-80",100 % of control
same,T/C,[6],92 % of control
same,T/C,"endpoint: mean survival time, dose: 200.0 mg/kg/injection, schedule: Q01DX001 (ip), vehicle: saline with Tween-80",110 % of control
same,T/C,"endpoint: mean survival time, dose: 400.0 mg/kg/injection, schedule: Q01DX001 (ip), vehicle: saline with Tween-80",98 % of control
C=C1C[C@]23C[C@@]1(O)CC[C@H]2[C@@]12C=C[C@H](O)[C@@](C)(C(=O)O1)[C@H]2[C@@H]3C(=O)O,T/C,[17],94 % of control
same,T/C,[11],104 % of control
same,T/C,[8],97 % of control
same,T/C,[18],96 % of control
same,T/C,[12],104 % of control
same,T/C,[9],94 % of control
same,T/C,[19],94 % of control
same,T/C,[13],104 % of control
same,T/C,[10],95 % of control
same,T/C,"endpoint: mean survival time, dose: 800.0 mg/kg/injection, schedule: Q01DX009 (ip), vehicle: acetone",92 % of control
C#CC1(OC(O)C(Cl)(Cl)Cl)CCCCC1 (configuration not stated),T/C,[3],103 % of control
same,T/C,[4],106 % of control
same,T/C,[5],103 % of control
